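1) Cells in 96-well plates. 2) Compound, 48 h, 5 concentrations. 3) Linear interpolation between surrounding doses. 4) Unreached endpoint = highest concentration. The concentration for full growth arrest is given as TGI.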
Assays:
Test in all cases: inhibition of tumour cell growth, NCI panel, 48 h
DLD-1 colon = test system: DLD-1 colon
HCT-116 colon = test system: HCT-116 colon
CAKI-1 renal = test system: CAKI-1 renal
SF-539 CNS = test system: SF-539 CNS
A549 NSCLC = test system: A549 NSCLC
SR leukemia = test system: SR leukemia
SK-OV-3 ovarian = test system: SK-OV-3 ovarian
HL-60(TB) leukemia = test system: HL-60(TB) leukemia
SNB-75 CNS = test system: SNB-75 CNS
MALME-3M melanoma = test system: MALME-3M melanoma
CCRF-CEM leukemia = test system: CCRF-CEM leukemia
SNB-19 CNS = test system: SNB-19 CNS
A498 renal = test system: A498 renal
LOX IMVI melanoma = test system: LOX IMVI melanoma
UACC-257 melanoma = test system: UACC-257 melanoma
SW-620 colon = test system: SW-620 colon
NCI-H460 lung = test system: NCI-H460 lung
HCC-2998 colon = test system: HCC-2998 colon
UACC-62 melanoma = test system: UACC-62 melanoma
SK-MEL-28 melanoma = test system: SK-MEL-28 melanoma
SF-268 CNS = test system: SF-268 CNS
HT29 colon = test system: HT29 colon
HCT-15 colon = test system: HCT-15 colon
SF-295 CNS = test system: SF-295 CNS
786-0 renal = test system: 786-0 renal
OVCAR-3 ovarian = test system: OVCAR-3 ovarian
M14 melanoma = test system: M14 melanoma
OVCAR-4 ovarian = test system: OVCAR-4 ovarian
KM12 colon = test system: KM12 colon
HOP-92 NSCLC = test system: HOP-92 NSCLC
COLO 205 colon = test system: COLO 205 colon
LXFL 529 NSCLC = test system: LXFL 529 NSCLC
XF 498 CNS = test system: XF 498 CNS
SK-MEL-2 melanoma = test system: SK-MEL-2 melanoma
NCI-H226 lung = test system: NCI-H226 lung
NCI-H522 lung = test system: NCI-H522 lung
TK-10 renal = test system: TK-10 renal
HOP-18 NSCLC = test system: HOP-18 NSCLC
SK-MEL-5 melanoma = test system: SK-MEL-5 melanoma
SN12C renal = test system: SN12C renal
U251 CNS = test system: U251 CNS
IGROV1 ovarian = test system: IGROV1 ovarian
OVCAR-5 ovarian = test system: OVCAR-5 ovarian
NCI-H23 lung = test system: NCI-H23 lung
KM20L2 colon = test system: KM20L2 colon
RPMI-8226 leukemia = test system: RPMI-8226 leukemia
RXF 393 renal = test system: RXF 393 renal
RXF-631 renal = test system: RXF-631 renal
ACHN renal = test system: ACHN renal
OVCAR-8 ovarian = test system: OVCAR-8 ovarian
K-562 leukemia = test system: K-562 leukemia
UO-31 renal = test system: UO-31 renal
MOLT-4 leukemia = test system: MOLT-4 leukemia
M19-MEL melanoma = test system: M19-MEL melanoma
DU-145 prostate = test system: DU-145 prostate
SNB-78 CNS = test system: SNB-78 CNS
DMS 114 small cell lung = test system: DMS 114 small cell lung
HOP-62 NSCLC = test system: HOP-62 NSCLC
EKVX NSCLC = test system: EKVX NSCLC
DMS 273 small cell lung = test system: DMS 273 small cell lung

CCOC(=O)C=C1CCC2(CC1)OCCO2
TGI (DLD-1 colon): > 100 µM
TGI (HCT-116 colon): > 100 µM
TGI (CAKI-1 renal): > 100 µM
TGI (SF-539 CNS): > 100 µM
TGI (A549 NSCLC): > 100 µM
TGI (SR leukemia): > 100 µM
TGI (SK-OV-3 ovarian): > 100 µM
TGI (HL-60(TB) leukemia): > 100 µM
TGI (SNB-75 CNS): > 100 µM
TGI (MALME-3M melanoma): > 100 µM
TGI (CCRF-CEM leukemia): > 100 µM
TGI (SNB-19 CNS): > 100 µM
TGI (A498 renal): > 100 µM
TGI (LOX IMVI melanoma): > 100 µM
TGI (UACC-257 melanoma): > 100 µM
TGI (SW-620 colon): > 100 µM
TGI (NCI-H460 lung): > 100 µM
TGI (HCC-2998 colon): > 100 µM
TGI (UACC-62 melanoma): > 100 µM
TGI (SK-MEL-28 melanoma): > 100 µM
TGI (SF-268 CNS): > 100 µM
TGI (HT29 colon): > 100 µM
TGI (HCT-15 colon): > 100 µM
TGI (SF-295 CNS): > 100 µM
TGI (786-0 renal): > 100 µM
TGI (OVCAR-3 ovarian): > 100 µM
TGI (M14 melanoma): > 100 µM
TGI (OVCAR-4 ovarian): > 100 µM
TGI (KM12 colon): > 100 µM
TGI (HOP-92 NSCLC): > 100 µM
TGI (COLO 205 colon): > 100 µM
TGI (LXFL 529 NSCLC): > 100 µM
TGI (XF 498 CNS): > 100 µM
TGI (SK-MEL-2 melanoma): > 100 µM
TGI (NCI-H226 lung): > 100 µM
TGI (NCI-H522 lung): > 100 µM
TGI (TK-10 renal): > 100 µM
TGI (HOP-18 NSCLC): > 100 µM
TGI (SK-MEL-5 melanoma): > 100 µM
TGI (SN12C renal): > 100 µM
TGI (U251 CNS): > 100 µM
TGI (IGROV1 ovarian): > 100 µM
TGI (OVCAR-5 ovarian): > 100 µM
TGI (NCI-H23 lung): > 100 µM
TGI (KM20L2 colon): > 100 µM
TGI (RPMI-8226 leukemia): > 100 µM
TGI (RXF 393 renal): > 100 µM
TGI (RXF-631 renal): > 100 µM
TGI (ACHN renal): > 100 µM
TGI (OVCAR-8 ovarian): > 100 µM
TGI (K-562 leukemia): > 100 µM
TGI (UO-31 renal): > 100 µM
TGI (MOLT-4 leukemia): > 100 µM
TGI (M19-MEL melanoma): > 100 µM
TGI (DU-145 prostate): > 100 µM

C[N+]1(C)C/C(=C/c2ccc(F)cc2)C(=O)/C(=C\c2ccc(F)cc2)C1
TGI (DLD-1 colon): > 100 µM
TGI (HCT-116 colon): > 100 µM
TGI (SF-539 CNS): > 100 µM
TGI (A549 NSCLC): > 100 µM
TGI (SK-OV-3 ovarian): > 100 µM
TGI (HL-60(TB) leukemia): 50.3 µM
TGI (SNB-75 CNS): > 100 µM
TGI (MALME-3M melanoma): > 100 µM
TGI (CCRF-CEM leukemia): 68.5 µM
TGI (SNB-19 CNS): > 100 µM
TGI (A498 renal): > 100 µM
TGI (SNB-78 CNS): > 100 µM
TGI (LOX IMVI melanoma): > 100 µM
TGI (UACC-257 melanoma): > 100 µM
TGI (SW-620 colon): > 100 µM
TGI (NCI-H460 lung): > 100 µM
TGI (HCC-2998 colon): > 100 µM
TGI (UACC-62 melanoma): 33.5 µM
TGI (SK-MEL-28 melanoma): 40.8 µM
TGI (DMS 114 small cell lung): > 100 µM
TGI (SF-268 CNS): > 100 µM
TGI (HCT-15 colon): > 100 µM
TGI (SF-295 CNS): > 100 µM
TGI (786-0 renal): > 100 µM
TGI (OVCAR-3 ovarian): > 100 µM
TGI (M14 melanoma): > 100 µM
TGI (OVCAR-4 ovarian): > 100 µM
TGI (KM12 colon): > 100 µM
TGI (HOP-92 NSCLC): > 100 µM
TGI (COLO 205 colon): > 100 µM
TGI (LXFL 529 NSCLC): > 100 µM
TGI (HOP-62 NSCLC): > 100 µM
TGI (SK-MEL-2 melanoma): > 100 µM
TGI (NCI-H522 lung): 36.9 µM
TGI (TK-10 renal): > 100 µM
TGI (HOP-18 NSCLC): > 100 µM
TGI (SN12C renal): 11.9 µM
TGI (U251 CNS): 42.7 µM
TGI (IGROV1 ovarian): 70.1 µM
TGI (OVCAR-5 ovarian): > 100 µM
TGI (NCI-H23 lung): > 100 µM
TGI (KM20L2 colon): > 100 µM
TGI (RPMI-8226 leukemia): 57.8 µM
TGI (RXF 393 renal): > 100 µM
TGI (RXF-631 renal): > 100 µM
TGI (ACHN renal): > 100 µM
TGI (OVCAR-8 ovarian): > 100 µM
TGI (K-562 leukemia): > 100 µM
TGI (UO-31 renal): > 100 µM
TGI (MOLT-4 leukemia): 45.5 µM
TGI (EKVX NSCLC): > 100 µM
TGI (DMS 273 small cell lung): 86.2 µM
TGI (M19-MEL melanoma): > 100 µM

Source: PubChem BioAssay (NCI)
